Assay results from patent US20100298141A1, “SUBSTITUTED PYRIDINE N-OXIDE HERBICIDES” (E. I. DU PONT DE NEMOURS AND COMPANY, priority 2007, published 2010).

Tests used:
johnsongrass = experiment: Test C pre-/postemergence test; assay type: in vivo, Sorghum halepense; details: for Johnsongrass plant response rating: preemergence, scale 0 (no effect) to 100 (complete control); for Plant response rating, Johnsongrass: scale 0 to 100, 0 no effect, 100 complete control
Procedure, shortened: (§1)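 Test chemicals were formulated with surfactant in a non-phytotoxic solvent and sprayed both on freshly planted seeds (preemergence) and on 1- to 4-leaf plants of 2–18 cm (postemergence). Flooded-paddy pots received compound directly into 3 cm of standing water, maintained for the test.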

corn [1] = experiment: Test C pre-/postemergence test; assay type: in vivo, Zea mays; details: for Plant response rating, Corn: scale 0 to 100, 0 no effect, 100 complete control
Procedure, shortened: as §1

bermudagrass = experiment: Test C pre-/postemergence test; assay type: in vivo, Cynodon dactylon; details: for Plant response rating, Bermudagrass: scale 0 to 100, 0 no effect, 100 complete control
Procedure, shortened: as §1

Goosegrass = experiment: Test C pre-/postemergence test; assay type: in vivo, Eleusin indica; details: for Plant response rating, Goosegrass: scale 0 to 100, 0 no effect, 100 complete control
Procedure, shortened: as §1

Italian ryegrass = experiment: Test C pre-/postemergence test; assay type: in vivo, Lolium multiflorum; details: for Plant response rating, Ryegrass, Italian: scale 0 to 100, 0 no effect, 100 complete control
Procedure, shortened: as §1

velvetleaf = experiment: Test A pre-/postemergence greenhouse test; assay type: in vivo, Abutilon theophrasti; details: for Velvetleaf plant response rating: 0 to 100 scale
Procedure, shortened: (§2)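 Seeds sown in a loam soil–sand blend got a preemergence directed soil spray of compound in a non-phytotoxic solvent mixture containing surfactant. Postemergence sprays of the same formulation went at the same time onto plants 2–10 cm tall at the one- to two-leaf stage. Injury was scored visually against untreated controls after about ten days in the greenhouse.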

soybean = experiment: Test C pre-/postemergence test; assay type: in vivo, Glycine max; details: for Plant response rating, Soybean: scale 0 to 100, 0 no effect, 100 complete control
Procedure, shortened: as §1

crabgrass [2] = experiment: Test C pre-/postemergence test; assay type: in vivo, Digitaria sanguinalis; details: for Plant response rating, Crabgrass, Large: scale 0 to 100, 0 no effect, 100 complete control
Procedure, shortened: as §1

green foxtail = experiment: Test C pre-/postemergence test; assay type: in vivo, Setaria viridis; details: for Plant response rating, Foxtail, Green: scale 0 to 100, 0 no effect, 100 complete control
Procedure, shortened: as §1

barnyardgrass [3] = experiment: Test A pre-/postemergence greenhouse test; assay type: in vivo, Echinochloa crus-galli; details: for Barnyardgrass plant response rating: 0 to 100 scale
Procedure, shortened: as §2

corn [4] = experiment: Test A pre-/postemergence greenhouse test; assay type: in vivo, Zea mays; details: for Corn plant response rating: 0 to 100 scale
Procedure, shortened: as §2

barnyardgrass [5] = experiment: Test C flooded paddy test; assay type: in vivo, Echinochloa crus-galli; details: Flood
Procedure, shortened: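 Flooded 3 cm over soil; compound into paddy water; depth kept constant. Greenhouse 13–15 d.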

pigweed = experiment: Test C pre-/postemergence test; assay type: in vivo, Amaranthus retroflexus; details: for Plant response rating, Pigweed: scale 0 to 100, 0 no effect, 100 complete control
Procedure, shortened: as §1

yellow nutsedge = experiment: Test C pre-/postemergence test; assay type: in vivo, Cyperus esculentus; details: for Plant response rating, Nutsedge, Yellow: scale 0 to 100, 0 no effect, 100 complete control
Procedure, shortened: as §1

crabgrass [6] = experiment: Test A pre-/postemergence greenhouse test; assay type: in vivo, Digitaria sanguinalis; details: for Crabgrass, Large plant response rating: 0 to 100 scale
Procedure, shortened: as §2

[7] = 31 g ai/ha, Preemergence, scale 0 to 100
[8] = 62 g ai/ha, preemergence, scale 0 (no effect) to 100 (complete control)
[9] = preemergence, 125 g ai/ha, scale 0 (no effect) to 100 (complete control)
[10] = Postemergence, 125 g ai/ha, 0 is no effect, 100 is complete control
[11] = Postemergence, 500 g ai/ha, 0 is no effect, 100 is complete control
[12] = Preemergence, 125 g ai/ha, 0 no effect, 100 complete control
[13] = Preemergence, 500 g ai/ha, 0 to 100 scale where 0 is no effect and 100 is complete control

Cn1nc(C(F)(F)F)c(C[S+]([O-])c2cccc[n+]2[O-])c1OC(F)F (centres unmarked) [Compound 3]
45: Crabgrass, Large plant response rating (crabgrass [2]; [7])
85: Goosegrass plant response rating (Goosegrass; [7]) | Plant response rating, Soybean (soybean; Postemergence, 250 g ai/ha) | Foxtail, Green plant response rating (green foxtail; [8]) | Plant response rating, Barnyardgrass (barnyardgrass [5]; 250 g ai/ha, scale 0 to 100 (0 no effect, 100 complete control))
100: Plant response rating (0 to 100), Johnsongrass (johnsongrass; Preemergence, 250 g ai/ha) | Johnsongrass plant response rating (johnsongrass; 125 g ai/ha) | Bermudagrass plant response rating (bermudagrass; [8]) | Plant response rating (0 to 100), Bermudagrass (bermudagrass; Preemergence, 250 g ai/ha) | Bermudagrass plant response rating (bermudagrass; [9]) | Goosegrass plant response rating (Goosegrass; [8]) | Plant response rating (0 to 100), Goosegrass (Goosegrass; Preemergence, 250 g ai/ha) | Goosegrass plant response rating (Goosegrass; [9]) | Ryegrass, Italian plant response rating (Italian ryegrass; [8]) | Plant response rating (0 to 100), Ryegrass, Italian (Italian ryegrass; Preemergence, 250 g ai/ha) | Ryegrass, Italian plant response rating (Italian ryegrass; [9]) | Plant response rating (0 to 100), Crabgrass, Large (crabgrass [2]; Preemergence, 250 g ai/ha) | Crabgrass, Large plant response rating (crabgrass [2]; [9]) | Plant response rating (0 to 100), Foxtail, Green (green foxtail; Preemergence, 250 g ai/ha) | Plant response rating, Barnyardgrass (barnyardgrass [3]; [13]) | Pigweed plant response rating (pigweed; [8]) | Plant response rating (0 to 100), Pigweed (pigweed; Preemergence, 250 g ai/ha) | Pigweed plant response rating (pigweed; [9]) | Nutsedge, Yellow plant response rating (yellow nutsedge; [8]) | Plant response rating (0 to 100), Nutsedge, Yellow (yellow nutsedge; Preemergence, 250 g ai/ha) | Nutsedge, Yellow plant response rating (yellow nutsedge; [9]) | Plant response rating, Crabgrass, Large (crabgrass [6]; [13])
30: Soybean plant response rating (soybean; [8]) | Corn plant response rating (corn [4]; [12])
10: Plant response rating, Foxtail, Green (green foxtail; Postemergence, 125 g ai/ha) | Plant response rating, Pigweed (pigweed; Postemergence, 125 g ai/ha)
60: Ryegrass, Italian plant response rating (Italian ryegrass; [7]) | Plant response rating (0 to 100), Soybean (soybean; Postemergence, 62 g ai/ha) | Corn plant response rating (corn [4]; [10]) | Plant response rating, Pigweed (pigweed; Postemergence, 250 g ai/ha)
90: Corn plant response rating (corn [1]; [9]) | Velvetleaf plant response rating (velvetleaf; [11]) | Plant response rating, Velvetleaf (velvetleaf; [13]) | Barnyardgrass plant response rating (barnyardgrass [3]; [11]) | Plant response rating, Corn (corn [4]; [13]) | Crabgrass, Large plant response rating (crabgrass [6]; [11]) | Crabgrass, Large plant response rating (crabgrass [6]; [12])
95: Plant response rating (0 to 100), Soybean (soybean; Preemergence, 250 g ai/ha) | Soybean plant response rating (soybean; [9])
75: Corn plant response rating (corn [1]; [8]) | Foxtail, Green plant response rating (green foxtail; [7]) | Plant response rating, Barnyardgrass (barnyardgrass [5]; 125 g ai/ha, scale 0 to 100, 0 no effect, 100 complete control, 13 to 15 days) | Pigweed plant response rating (pigweed; [7])
40: Plant response rating, Ryegrass, Italian (Italian ryegrass; Postemergence, 250 g ai/ha) | Plant response rating (0 to 100), Soybean (soybean; Postemergence, 31 g ai/ha)
80: Bermudagrass plant response rating (bermudagrass; [7]) | Plant response rating, Goosegrass (Goosegrass; Postemergence, 250 g ai/ha) | Barnyardgrass plant response rating (barnyardgrass [3]; [10]) | Barnyardgrass plant response rating (barnyardgrass [3]; [12]) | Corn plant response rating (corn [4]; [11]) | Crabgrass, Large plant response rating (crabgrass [6]; [10])
5: Plant response rating, Corn (corn [1]; Postemergence, 62 g ai/ha) | Plant response rating, Corn (corn [1]; Postemergence, 125 g ai/ha) | Plant response rating, Corn (corn [1]; Postemergence, 250 g ai/ha) | Soybean plant response rating (soybean; [7])
55: Plant response rating, Foxtail, Green (green foxtail; Postemergence, 250 g ai/ha)
50: Corn plant response rating (corn [1]; [7]) | Plant response rating, Bermudagrass (bermudagrass; Postemergence, 125 g ai/ha) | Plant response rating, Bermudagrass (bermudagrass; Postemergence, 250 g ai/ha) | Plant response rating, Goosegrass (Goosegrass; Postemergence, 62 g ai/ha) | Velvetleaf plant response rating (velvetleaf; [10]) | Plant response rating, Crabgrass, Large (crabgrass [2]; Postemergence, 125 g ai/ha) | Plant response rating, Barnyardgrass (barnyardgrass [5]; 62 g ai/ha, scale 0 to 100, 0 no effect, 100 complete control, 13 to 15 days)
65: Plant response rating, Goosegrass (Goosegrass; Postemergence, 125 g ai/ha)
0: Plant response rating (0 to 100), Johnsongrass (johnsongrass; Postemergence, 31 g ai/ha) | Plant response rating, Johnsongrass (johnsongrass; Postemergence, 62 g ai/ha) | Plant response rating (0 to 100), Corn (corn [1]; Postemergence, 31 g ai/ha) | Plant response rating (0 to 100), Bermudagrass (bermudagrass; Postemergence, 31 g ai/ha) | Plant response rating (0 to 100), Ryegrass, Italian (Italian ryegrass; Postemergence, 31 g ai/ha) | Plant response rating (0 to 100), Ryegrass, Italian (Italian ryegrass; Postemergence, 62 g ai/ha) | Plant response rating, Ryegrass, Italian (Italian ryegrass; Postemergence, 125 g ai/ha) | Plant response rating (0 to 100), Crabgrass, Large (crabgrass [2]; Postemergence, 31 g ai/ha) | Plant response rating, Crabgrass, Large (crabgrass [2]; Postemergence, 62 g ai/ha) | Plant response rating (0 to 100), Foxtail, Green (green foxtail; Postemergence, 31 g ai/ha) | Plant response rating, Foxtail, Green (green foxtail; Postemergence, 62 g ai/ha) | Plant response rating, Barnyardgrass (barnyardgrass [5]; 31 g ai/ha, scale 0 to 100 (0 no effect, 100 complete control)) | Plant response rating (0 to 100), Pigweed (pigweed; Postemergence, 31 g ai/ha) | Plant response rating (0 to 100), Pigweed (pigweed; Postemergence, 62 g ai/ha) | Nutsedge, Yellow plant response rating (yellow nutsedge; [7]) | Plant response rating (0 to 100), Nutsedge, Yellow (yellow nutsedge; Postemergence, 31 g ai/ha) | Plant response rating, Nutsedge, Yellow (yellow nutsedge; Postemergence, 62 g ai/ha) | Plant response rating, Nutsedge, Yellow (yellow nutsedge; Postemergence, 125 g ai/ha) | Plant response rating, Nutsedge, Yellow (yellow nutsedge; Postemergence, 250 g ai/ha)
20: Plant response rating, Johnsongrass (johnsongrass; Postemergence, 125 g ai/ha) | Plant response rating, Johnsongrass (johnsongrass; Postemergence, 250 g ai/ha) | Plant response rating (0 to 100), Goosegrass (Goosegrass; Postemergence, 31 g ai/ha)
70: Velvetleaf plant response rating (velvetleaf; [12]) | Plant response rating, Soybean (soybean; Postemergence, 125 g ai/ha) | Plant response rating, Crabgrass, Large (crabgrass [2]; Postemergence, 250 g ai/ha)
98: Johnsongrass plant response rating (johnsongrass; 62 g ai/ha) | Plant response rating (0 to 100), Corn (corn [1]; Preemergence, 250 g ai/ha) | Crabgrass, Large plant response rating (crabgrass [2]; [8]) | Foxtail, Green plant response rating (green foxtail; [9])
